From patent US20030198617A1, “Pharmaceutical tryptophan containing dipeptide compositions and methods of use thereof” (priority 1993, published 2003)
Marks after values point to notes of the source that are not given here.

How the values were obtained:
skin grafts = test: Skin allograft survival in mice; format: in vivo
[1] = Radiation immunodeficiency correction two months after irradiation (Chernobyl), blood parameters; format: in vivo, human; conditions: after IM862 therapy
Protocol: These patients were treated for 2 months immediately succeeding exposure to radiation caused from the Chernobyl nuclear accident. As a control, about 19 people exposed to radiation were tested for various blood parameters to establish a baseline.

[2] = Infected patients with icterus (Example 95); format: in vivo, human; conditions: IM862 100 μg 5-10 days, 48 patients
Excerpt: The hematological and immunological indices were normalized.

[3] = Chronic prostatitis, clinical result and immunological examination
Protocol: A clinical study of the preparation was conducted in 34 chronic prostatitis patients having active inflammation. Patients were aged 22 to 45 years old. Diagnosis was established by patient complaints, a medical history, palpation of the prostate, and laboratory investigation methods (microscopic examination of prostate gland secretions, spermography, three-cup urinalysis).
A traditional treatment plan was followed simultaneously, using antibacterial preparations, uroantiseptics, physical procedures, prostate gland massage, and therapeutic exercise.
Measurement reliability of the obtained indices was evaluated with the use of variable statistics methods.
The persistent disappearance (over an observation period of 1-1.5 months) of painful sensations, leukocyturia, the lowering of the leukocyte count to normal levels in prostate gland secretions and ejaculate, and the overall improvement in the general state of the patient were all deemed to be a good result.
The normalization of all laboratory indices while complaints of pain persisted in the perineum, sacrum, anal region, scrotum, etc. was rated as a satisfactory result.
The second group was made up of patients with lowered initial indices, and the third had patients with elevated initial indices.

hemorrhagic Dengue Fever = test: Hemorrhagic Dengue Fever study, duration of symptoms; format: in vivo, human; conditions: IM862 administered
Protocol: All those examined were representatives of organized collectives and had the same type of working and living conditions prior to the onset of illness. The patients were referred to in-patient treatment to the 175th Military Hospital in Ho Chi Minh City during an epidemic of Dengue fever in southern Socialist Republic of Vietnam.
Diagnoses of HDF were established by criteria recommended by the WHO (1986). Serological analyses were performed at the Arbovirus Infections Laboratory of the Pasteur Institute (Ho Chi Minh City). Disease severity was 1-2 in all patients.
The patients were divided into one group treated with IM862 and one group not receiving IM862. […] The efficacy of therapy was determined by observation of the duration of the most frequently encountered signs and symptoms of the disease (Table 14).

[4] = Resistance to excessive solar radiation in hot marine climates; format: in vivo, human; conditions: IM862 intranasally 100 μg 3 days, 27 persons
Protocol: The control group comprised 24 persons. The administration was intranasally 100 μg for 3 days. […] There was also noted suppression of their immunologic indices.

T cells = test: Intracellular cAMP in T cells; format: cell-based
[5] = Spontaneous tumorigenesis, experimental models; format: in vivo; conditions: IM862 prophylactically
[6] = Immune system of guinea pigs after radiation exposure (thymus, lymph node, spleen, blood); format: in vivo
Excerpt: Seventy-two of the animals were irradiated with total radiation dose was 1 Gr. […] The selected doses were optimal in stimulating an immune response to ram erythrocytes. Control irradiated and non-irradiated animals (24 guinea pigs to each group) were given saline solution per an analogous schedule. At 5, 10, and 20 days after irradiation the animals were destroyed (8 guinea pigs from each group). The thymus, spleen, and lymph nodes of each animal were extracted and their weight coefficients computed. The number of karyocytes, T-, B-, and O-lymphocytes in each organ was determined. Also, the functional activity of blood lymphocytes in the leukocyte migration inhibition reaction to Con A was assessed and the content of cation proteins in the neutrophils was determined.

[7] = Young sportsmen, upper respiratory infections; format: in vivo, human; conditions: IM862 intranasally 1 μg/kg, 3 days, 84 sportsmen
Excerpt: The control group consisted of 44 persons.

[8] = 34 chronic prostatitis patients
[9] = after treatment 100 μg i.m. for 5 days
[10] = elevated in 1 patient, after treatment
[11] = initial level lowered n = 14, after treatment
[12] = normal in 34 patients, after treatment
[13] = 20 days after irradiation, IM862 0.01 mg/kg daily for 5 days

## Glu-Trp [IM862]
Skin grafts; mice, daily for 5 treatments prior to grafting, IM862 0.01 mg/kg, Thymalin 1.0 mg/kg
  GRAFT REJECTION TIME: 8.3 ± 0.4 days
Skin grafts; vs animals not receiving Glu-Trp
  graft survival: prolonged survival
[1]
  CD2, %: 48.7 ± 1.8 %
  CD2, abs: 1.13 ± 0.08** 10^9/l
  CD2-DR+, %: 30.0 ± 1.2 %
  CD2-DR+, abs: 0.55 ± 0.06* 10^9/l
  CD19, %: 27 ± 4%
  CD19, abs: 0.51 ± 0.10** 10^9/l
  E-RFC, %: 27.4 ± 2.4 %
  IgA: 1.49 ± 0.19 g/L
  IgG: 10.0 ± 1.0 g/L
  IgM: 1.00 ± 0.10 g/L
  LMI with ConA, %: 90 ± 10 %
  Leukocytes, abs: 5.0 ± 1.2** 10^9/l
  Lymphocytes, 2abs: 1.9 ± 0.4* 10^9/l
[2]
  clinical effect: normalization of fever
[3]; [8]
  good result, share of patients: 76.5%
  satisfactory result, number of patients: 8 patients
[3]; 34 chronic prostatitis patients, IM862 with traditional treatment
  good result, number of patients: 26 patients
[3]; IM862 use
  elevated and lowered immune indices upon completion of treatment: a normalization was observed in all the elevated and lowered indices
[3]; [9]
  B-lymphocytes %: 27.24 ± 1.44%
  B-lymphocytes Abs. quantity ×10^9: 0.54 ± 0.10 ×10^9
  Complement units: 29.43 ± 0.53 units
  IgA: 2.20 ± 0.12 g/L
  IgG: 12.52 ± 0.63 g/L
  Imm. complexes units: 0.080 ± 0.004 units
  Phagocytosis %: 39.41 ± 3.51%
  T-lymphocytes %: 44.44 ± 2.34%
  T-lymphocytes Abs. quantity ×10^9: 0.88 ± 0.07 ×10^9
[3]; [10]
  IgG: 14.71 ± 1.42 g/L
  IgM: 3.44 g/L
[3]; initial level elevated n = 2, after treatment
  T-lymphocytes %: 40.0 ± 15.5%
[3]; initial level elevated n = 7, after treatment
  Complement units: 30.7 ± 0.89 units
[3]; initial level elevated n = 8, after treatment
  B-lymphocytes %: 24.8 ± 2.91^x %
[3]; initial level elevated n = 19, after treatment
  Imm. complexes units: 0.08 ± 0.006^x units
[3]; initial level elevated n = 26, after treatment
  Phagocytosis %: 37.7 ± 3.94%
[3]; initial level lowered n = 5, after treatment
  Phagocytosis %: 36.6 ± 8.54^x %
[3]; initial level lowered n = 8, after treatment
  Imm. complexes units: 0.07 ± 0.011 units
[3]; initial level lowered n = 10, after treatment
  B-lymphocytes %: 26.0 ± 2.91^x %
[3]; [11]
  Complement units: 34.2 ± 0.93^x units
  T-lymphocytes %: 37.9 ± 2.24%
[3]; initial level normal n = 3, after treatment
  Phagocytosis %: 58.6 ± 17.98%
[3]; initial level normal n = 7, after treatment
  Imm. complexes units: 0.08 ± 0.006 units
[3]; initial level normal n = 13, after treatment
  Complement units: 29.3 ± 0.88 units
[3]; initial level normal n = 16, after treatment
  B-lymphocytes %: 29.2 ± 2.15%
[3]; initial level normal n = 18, after treatment
  T-lymphocytes %: 50.0 ± 3.57%
[3]; lowered in 2 patients, after treatment
  IgG: 7.80 ± 1.13 g/L
[3]; normal in 33 patients, after treatment
  IgM: 2.08 ± 0.12 g/L
[3]; [12]
  Ig (character image) l: 2.20 ± 0.12
  IgG: 12.51 g/L
Hemorrhagic Dengue Fever
  Duration of Abdominal pain: 7.7 ± 1.1 days
  Duration of Anorexia: 7.5 ± 0.8 days
  Duration of Headaches: 8.1 ± 0.9 days
  Duration of Hepatomegaly: 11.3 ± 0.8 days
  Duration of Insomnia: 7.1 ± 0.7 days
  Duration of Joint pain: 7.4 ± 0.7 days
  Duration of Low back pain: 8.1 ± 0.8 days
  Duration of Lumbar pain: 8.7 ± 0.7 days
  Duration of Ophthalmalgia: 6.6 ± 0.8 days
  Duration of Splenomegaly: 9.6 ± 0.7 days
  Duration of Weakness/fatigue: 9.3 ± 0.8 days
Hemorrhagic Dengue Fever; total dose 500 μg
  Duration of Fever, Prescription 2-4 days: 4.7 ± 0.2 days
  Duration of Fever, Prescription 2-6 days: 5.2 ± 0.3 days
[4]
  clinical effect: prevented the occurrence of upper respiratory infections
T cells
  intracellular cAMP concentrations: an increase of intracellular cAMP concentrations is observed
[5]
  spontaneous tumorigenesis: diminished frequency of spontaneous tumorigenesis
[6]; 10 and 20 days after irradiation
  cation protein count in the blood neutrophils: normalized at 10 and 20 days after irradiation
[6]; [13]
  Lymph Node: B-lymphocytes %: 3.5 ± 0.6^x %
  Lymph Node: B-lymphocytes ×10^3/mg: 9.2 ± 0.9^x ×10^3/mg
  Lymph Node: Lymphocytes ×10^3/mg: 242.5 ± 31.3^xx ×10^3/mg
  Lymph Node: O-lymphocytes %: 84.4 ± 12.3%
  Lymph Node: O-lymphocytes ×10^3/mg: 204.6 ± 33.4^xx ×10^3/mg
  Lymph Node: T-lymphocytes %: 12.3 ± 0.9%
  Lymph Node: T-lymphocytes ×10^3/mg: 29.9 ± 2.2^xx ×10^3/mg
  Lymph Node: Weight coefficient: 0.31 ± 0.03 g/kg
  Lymph Node: “Active” T-lymphocytes %: 10.3 ± 1.4%
  Lymph Node: “Active” T-lymphocytes ×10^3/mg: 24.9 ± 3.7^xx ×10^3/mg
  Splenic: B-lymphocytes %: 27.1 ± 2.6%
  Splenic: B-lymphocytes ×10^3/mg: 81.6 ± 9.3 ×10^3/mg
  Splenic: Lymphocytes ×10^3/mg: 260.4 ± 32.3^xx ×10^3/mg
  Splenic: O-lymphocytes %: 57.4 ± 6.7%
  Splenic: O-lymphocytes ×10^3/mg: 149.4 ± 15.9^x ×10^3/mg
  Splenic: T-lymphocytes %: 17.4 ± 1.2%
  Splenic: T-lymphocytes ×10^3/mg: 45.4 ± 4.1^xx ×10^3/mg
  Splenic: Weight coefficient: 1.26 ± 0.9 g/kg
  Splenic: “Active” T-lymphocytes %: 11.1 ± 2.0%
  Splenic: “Active” T-lymphocytes ×10^3/mg: 28.9 ± 3.9^xx ×10^3/mg
  Thymic: B-lymphocytes %: 0.9 ± 0.08^xx %
  Thymic: B-lymphocytes ×10^3/mg: 3.7 ± 0.4 ×10^3/mg
  Thymic: Lymphocytes ×10^3/mg: 423.3 ± 40.4^xx ×10^3/mg
  Thymic: O-lymphocytes %: 17.9 ± 0.8%
  Thymic: O-lymphocytes ×10^3/mg: 75.4 ± 8.6^xx ×10^3/mg
  Thymic: T-lymphocytes %: 81.3 ± 9.3%
  Thymic: T-lymphocytes ×10^3/mg: 342.8 ± 30.4^xx ×10^3/mg
  Thymic: Weight coefficient g/kg: 0.81 ± 0.8^xx g/kg
  Thymic: “Active” T-lymphocytes %: 57.6 ± 6.2^xx %
  Thymic: “Active” T-lymphocytes ×10^3/mg: 242.6 ± 26.8^xx ×10^3/mg
[6]; irradiated guinea pigs, 5 and 20 days after irradiation
  percent of leukocyte migration (blood lymphocytes, Con A): normalized this index by 20 days after radiation exposure
[7]
  reduction of upper respiratory infections and rates of illness: 4 fold
